{"source": "patent US9695155B2", "about": "“Herbicidal substituted pyrimidinyloxy benzene compounds” (E. I. DU PONT DE NEMOURS AND COMPANY, priority 2013, dated 2017)", "key": {"kochia": {"test_system": "kochia", "test": "Test C postemergence", "type": "in vivo, Kochia scoparia", "conditions": "for Plant response rating (0 to 100), Kochia: postemergence; for Plant response rating, Kochia: Postemergence, scale 0 to 100 (0 no effect, 100 complete control)", "how_it_was_run": "(§1)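 Preemergence: seeds sown in a loam soil–sand blend and sprayed with test chemical in a non-phytotoxic solvent mixture containing surfactant. Postemergence: plants at 2 to 18 cm (1- to 4-leaf stage) in peat-based medium, treated with the same formulation. Greenhouse 13 to 15 days, then visual rating 0 (no effect) to 100 (complete control).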"}, "pigweed": {"test_system": "pigweed", "test": "Test C preemergence", "type": "in vivo, Amaranthus retroflexus", "conditions": "for Pigweed plant response rating: preemergence, scale 0 (no effect) to 100 (complete control)", "how_it_was_run": "as §1"}, "corn [1]": {"test_system": "corn", "test": "Test C preemergence", "type": "in vivo, Zea mays", "conditions": "for Corn plant response rating: preemergence, scale 0 (no effect) to 100 (complete control)", "how_it_was_run": "as §1"}, "giant foxtail [2]": {"test_system": "giant foxtail", "test": "Test C postemergence", "type": "in vivo, Setaria faberii", "conditions": "for Plant response rating (0 to 100), Foxtail, Giant: postemergence; for Plant response rating, Foxtail, Giant: Postemergence, scale 0 to 100 (0 no effect, 100 complete control)", "how_it_was_run": "as §1"}, "yellow nutsedge": {"test_system": "yellow nutsedge", "test": "Test C postemergence", "type": "in vivo, Cyperus esculentus", "conditions": "for Plant response rating (0 to 100), Nutsedge, Yellow: postemergence; for Plant response rating, Nutsedge, Yellow: Postemergence, scale 0 to 100 (0 no effect, 100 complete control)", "how_it_was_run": "as §1"}, "blackgrass": {"test_system": "blackgrass", "test": "Test C postemergence", "type": "in vivo, Alopecurus myosuroides", "conditions": "for Plant response rating (0 to 100), Blackgrass: postemergence; for Plant response rating, Blackgrass: Postemergence, scale 0 to 100 (0 no effect, 100 complete control)", "how_it_was_run": "as §1"}, "large (Lg) crabgrass": {"test_system": "large (Lg) crabgrass", "test": "Test C preemergence", "type": "in vivo, Digitaria sanguinalis", "conditions": "for Crabgrass, Large plant response rating: preemergence, scale 0 (no effect) to 100 (complete control)", "how_it_was_run": "as §1"}, "lambsquarters": {"test_system": "lambsquarters", "test": "Test C preemergence", "type": "in vivo, Chenopodium album", "conditions": "for Lambsquarters plant response rating: preemergence, scale 0 (no effect) to 100 (complete control)", "how_it_was_run": "as §1"}, "wheat, winter": {"test_system": "wheat, winter", "test": "Test C postemergence", "type": "in vivo, Triticum aestivum", "conditions": "for Plant response rating (0 to 100), Wheat: postemergence; for Plant response rating, Wheat: Postemergence, scale 0 to 100 (0 no effect, 100 complete control)", "how_it_was_run": "as §1"}, "giant foxtail [3]": {"test_system": "giant foxtail", "test": "Test A postemergence", "type": "in vivo, Setaria faberii", "how_it_was_run": "(§2)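 Pre- and postemergence greenhouse screen. Soil: loam + sand. Spray carrier: solvent mixture, non-phytotoxic, with surfactant. Post timing at 1–2 leaves, height 2–10 cm. Readout: visual injury on a 0–100 scale roughly 10 days after application, untreated plants as reference.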"}, "corn [4]": {"test_system": "corn", "test": "Test A postemergence", "type": "in vivo, Zea mays", "how_it_was_run": "as §2"}, "corn [5]": {"test_system": "corn", "test": "Test C postemergence", "type": "in vivo, Zea mays", "conditions": "for Plant response rating (0 to 100), Corn: postemergence; for Plant response rating, Corn: Postemergence, scale 0 to 100 (0 no effect, 100 complete control)", "how_it_was_run": "as §1"}, "[6]": {"conditions": "Preemergence, 31 g ai/ha, scale 0 to 100, 0 no effect, 100 complete control"}, "[7]": {"conditions": "125 g ai/ha, 0 to 100 scale where 0 is no effect and 100 is complete control"}, "[8]": {"conditions": "500 g ai/ha, 0 to 100 scale, 0 no effect, 100 complete control"}}}
{"molecule": "FC(F)(F)c1cnn(-c2ccccc2Oc2ncc(Cl)cn2)c1", "note": "[Compound 16]", "values": [{"measurement": "Plant response rating (0 to 100), Kochia", "setting": "kochia; 125 g ai/ha", "result": 98}, {"measurement": "Plant response rating (0 to 100), Kochia", "setting": "kochia; 250 g ai/ha", "result": 100}, {"measurement": "Plant response rating, Kochia", "setting": "kochia; 31 g ai/ha, 13 to 15 days", "result": 35}, {"measurement": "Plant response rating, Kochia", "setting": "kochia; 62 g ai/ha", "result": 80}, {"measurement": "Pigweed plant response rating", "setting": "pigweed; 62 g ai/ha", "result": 100}, {"measurement": "Pigweed plant response rating", "setting": "pigweed; 125 g ai/ha", "result": 100}, {"measurement": "Pigweed plant response rating", "setting": "pigweed; 250 g ai/ha", "result": 100}, {"measurement": "Plant response rating, Pigweed", "setting": "pigweed; [6]", "result": 100}, {"measurement": "Corn plant response rating", "setting": "corn [1]; 62 g ai/ha", "result": 15}, {"measurement": "Corn plant response rating", "setting": "corn [1]; 125 g ai/ha", "result": 25}, {"measurement": "Corn plant response rating", "setting": "corn [1]; 250 g ai/ha", "result": 35}, {"measurement": "Plant response rating, Corn", "setting": "corn [1]; [6]", "result": 0}, {"measurement": "Plant response rating (0 to 100), Foxtail, Giant", "setting": "giant foxtail [2]; 125 g ai/ha", "result": 15}, {"measurement": "Plant response rating (0 to 100), Foxtail, Giant", "setting": "giant foxtail [2]; 250 g ai/ha", "result": 85}, {"measurement": "Plant response rating, Foxtail, Giant", "setting": "giant foxtail [2]; 31 g ai/ha, 13 to 15 days", "result": 5}, {"measurement": "Plant response rating, Foxtail, Giant", "setting": "giant foxtail [2]; 62 g ai/ha", "result": 10}, {"measurement": "Plant response rating (0 to 100), Nutsedge, Yellow", "setting": "yellow nutsedge; 125 g ai/ha", "result": 5}, {"measurement": "Plant response rating (0 to 100), Nutsedge, Yellow", "setting": "yellow nutsedge; 250 g ai/ha", "result": 20}, {"measurement": "Plant response rating, Nutsedge, Yellow", "setting": "yellow nutsedge; 31 g ai/ha, 13 to 15 days", "result": 5}, {"measurement": "Plant response rating, Nutsedge, Yellow", "setting": "yellow nutsedge; 62 g ai/ha", "result": 5}, {"measurement": "Plant response rating (0 to 100), Blackgrass", "setting": "blackgrass; 125 g ai/ha", "result": 30}, {"measurement": "Plant response rating (0 to 100), Blackgrass", "setting": "blackgrass; 250 g ai/ha", "result": 70}, {"measurement": "Plant response rating, Blackgrass", "setting": "blackgrass; 31 g ai/ha, 13 to 15 days", "result": 5}, {"measurement": "Plant response rating, Blackgrass", "setting": "blackgrass; 62 g ai/ha", "result": 30}, {"measurement": "Crabgrass, Large plant response rating", "setting": "large (Lg) crabgrass; 62 g ai/ha", "result": 100}, {"measurement": "Crabgrass, Large plant response rating", "setting": "large (Lg) crabgrass; 125 g ai/ha", "result": 100}, {"measurement": "Crabgrass, Large plant response rating", "setting": "large (Lg) crabgrass; 250 g ai/ha", "result": 100}, {"measurement": "Plant response rating, Crabgrass, Large", "setting": "large (Lg) crabgrass; [6]", "result": 98}, {"measurement": "Lambsquarters plant response rating", "setting": "lambsquarters; 62 g ai/ha", "result": 80}, {"measurement": "Lambsquarters plant response rating", "setting": "lambsquarters; 125 g ai/ha", "result": 80}, {"measurement": "Lambsquarters plant response rating", "setting": "lambsquarters; 250 g ai/ha", "result": 90}, {"measurement": "Plant response rating, Lambsquarters", "setting": "lambsquarters; [6]", "result": 20}, {"measurement": "Plant response rating (0 to 100), Wheat", "setting": "wheat, winter; 125 g ai/ha", "result": 35}, {"measurement": "Plant response rating (0 to 100), Wheat", "setting": "wheat, winter; 250 g ai/ha", "result": 35}, {"measurement": "Plant response rating, Wheat", "setting": "wheat, winter; 31 g ai/ha, 13 to 15 days", "result": 5}, {"measurement": "Plant response rating, Wheat", "setting": "wheat, winter; 62 g ai/ha", "result": 15}, {"measurement": "Plant response rating, Foxtail, Giant", "setting": "giant foxtail [3]; [7]", "result": 100}, {"measurement": "Plant response rating, Foxtail, Giant", "setting": "giant foxtail [3]; [8]", "result": 100}, {"measurement": "Plant response rating, Corn", "setting": "corn [4]; [7]", "result": 70}, {"measurement": "Plant response rating, Corn", "setting": "corn [4]; [8]", "result": 80}, {"measurement": "Plant response rating (0 to 100), Corn", "setting": "corn [5]; 125 g ai/ha", "result": 10}, {"measurement": "Plant response rating (0 to 100), Corn", "setting": "corn [5]; 250 g ai/ha", "result": 20}, {"measurement": "Plant response rating, Corn", "setting": "corn [5]; 31 g ai/ha, 13 to 15 days", "result": 5}, {"measurement": "Plant response rating, Corn", "setting": "corn [5]; 62 g ai/ha", "result": 5}]}
